The source of these data is patent publication US12247029B2, “Heterocyclic compounds as class II phosphoinositide 3-kinase inhibitors” (Forschungsverbund Berlin e.V., priority 2018, dated 2025).

Entries after “also recorded” stand apart in the source; their conditions may differ. Read-outs that look alike come from different tables or passages of the source.

One assay concerns the target PI3KC2α Δ1-298 (Homo sapiens (Human), UniProt O00443). Description: ADP-Glo kinase assay with purified PI3KC2α Δ1-298. It counts as biochemical. A digest of the protocol:
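Purified human PI3KC2α Δ1-298 (10 ng/μl) with liver PI (200 μM) and ATP (40 μM), 20 min kinase reaction; ADP formed read by ADP-Glo luminescence after 40 min ATP depletion. Screening compounds at 10 μM; reactions lacking PI served as negative control.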

Assay [1] has as its system commercially available lipid kinases and the related mTOR protein kinase. The assay is described as follows: In vitro kinase profiling at fixed 10 μM (lipid kinase panel, mTOR, general kinase panel). Conditions: 10 μM compound; listed as C2a_Inh3. The format is biochemical. How it is done: FIG. 7. In vitro kinase activity in presence of 10 μM compounds. (A-C) The specificity of initial screening hits and C2a_inh1-3 was validated by incubation with available lipid kinases. […] (D) Selectivity may be modulated by modifying the R11 substituent of Formula 1. […]
We firstly analyzed the specificity of C2a_inh1 (dihydropteridinone derived compound) and other initial screening hits (eg. quinolone derived compound) in vitro. […]

In assay [2] the test system is eGFP-clathrin expressing Cos7 cells. The assay is described as follows: CCP dynamics by TIRF microscopy. The format is cell-based. To be noted: treatment for 1 h, vs DMSO. How it is done: (§1) FIG. 8. Inhibition of PI3KC2α in living cells upon treatment with C2a_inh1-3. (A) PI3KC2α inhibition impairs CCP dynamics analyzed by TIRF microscope. eGFP-clathrin expressing Cos7 cells were treated by DMSO or C2a_Inh3 for 1 h and imaged by TIRF microscope. […] (B) C2a_Inh3 treatment of eGFP-SNX9 AS OE HeLa cells. […] Scale bar, 10 μm or 2 μm (inset). (C) Quantification of the results depicted in B, indicating the percentage of cells containing membrane tubules (N=3, statistical analysis with one-way ANOVA, **** is for p<0.0001).
To test if the validated compounds are cell membrane permeable and, thus, can be used as medicaments and in cell-based experiments, the inventors analyzed clathrin-mediated endocytosis of transferrin in the presence of PI3KC2α inhibitors or DMSO as a solvent control. […] Further, the inventors monitored the CCP dynamics in cells with PI3KC2α inhibitor (C2a_Inh3) treatment for 1 h.

For assay [3], the system named is HeLa cells overexpressing SNX9 AS. Description: SNX9 AS membrane recruitment / tubulation. The format is cell-based. Conditions: eGFP-SNX9 AS OE HeLa cells, vs DMSO. On the procedure:
as §1
SNX9 is a main effector protein of PI3KC2α dependent PI(3,4)P2 production. […] HeLa cells overexpressing SNX9 AS were treated with C2a_inh_3 or DMSO as a control.

Where [4] appears, read: read-out: IC50 (PI3KC2α; ADP-Glo™ assay).

Sequence of PI3KC2α Δ1-298 (O00443 299-1686): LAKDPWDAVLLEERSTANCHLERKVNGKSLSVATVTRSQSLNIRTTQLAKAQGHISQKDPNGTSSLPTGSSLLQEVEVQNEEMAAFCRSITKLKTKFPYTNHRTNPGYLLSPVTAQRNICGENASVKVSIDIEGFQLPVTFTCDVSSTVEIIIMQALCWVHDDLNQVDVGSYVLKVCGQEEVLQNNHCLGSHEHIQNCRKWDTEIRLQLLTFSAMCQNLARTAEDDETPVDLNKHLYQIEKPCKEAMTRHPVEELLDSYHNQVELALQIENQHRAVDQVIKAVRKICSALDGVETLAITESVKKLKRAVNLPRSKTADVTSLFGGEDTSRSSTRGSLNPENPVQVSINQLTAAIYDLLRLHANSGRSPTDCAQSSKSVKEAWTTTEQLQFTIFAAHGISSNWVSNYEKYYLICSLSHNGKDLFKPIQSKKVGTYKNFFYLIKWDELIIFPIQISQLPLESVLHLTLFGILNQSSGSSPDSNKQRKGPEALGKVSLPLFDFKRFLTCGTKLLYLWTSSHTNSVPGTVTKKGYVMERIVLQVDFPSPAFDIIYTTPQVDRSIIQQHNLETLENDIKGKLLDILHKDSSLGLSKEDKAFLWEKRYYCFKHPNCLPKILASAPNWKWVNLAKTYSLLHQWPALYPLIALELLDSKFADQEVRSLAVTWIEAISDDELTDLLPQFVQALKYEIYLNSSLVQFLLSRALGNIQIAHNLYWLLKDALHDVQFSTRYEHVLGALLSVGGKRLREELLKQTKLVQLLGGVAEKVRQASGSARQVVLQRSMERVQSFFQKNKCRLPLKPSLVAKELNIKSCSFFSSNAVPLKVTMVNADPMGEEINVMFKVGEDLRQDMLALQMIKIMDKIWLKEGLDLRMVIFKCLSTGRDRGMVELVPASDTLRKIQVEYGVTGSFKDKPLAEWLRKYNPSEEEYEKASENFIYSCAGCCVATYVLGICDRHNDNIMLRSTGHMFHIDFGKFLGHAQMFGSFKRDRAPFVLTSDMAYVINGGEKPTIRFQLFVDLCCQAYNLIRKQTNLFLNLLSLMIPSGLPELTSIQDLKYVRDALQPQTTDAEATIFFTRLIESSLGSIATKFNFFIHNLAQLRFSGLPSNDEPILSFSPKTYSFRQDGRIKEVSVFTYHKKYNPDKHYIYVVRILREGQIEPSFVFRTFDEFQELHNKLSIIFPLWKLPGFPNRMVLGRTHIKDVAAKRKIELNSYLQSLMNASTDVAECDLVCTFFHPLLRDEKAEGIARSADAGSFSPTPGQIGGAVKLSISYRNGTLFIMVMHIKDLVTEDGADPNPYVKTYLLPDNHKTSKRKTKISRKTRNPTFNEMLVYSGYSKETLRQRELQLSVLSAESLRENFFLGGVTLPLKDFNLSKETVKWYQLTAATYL

By IC50 is commonly meant the concentration needed to halve the response being measured. As to `O=C(CSc1nc2nccnc2c(=O)n1CCc1ccccc1)Nc1nccs1` [Example Compound 11, 2-((4-Oxo-3-phenethyl-3,4-dihydropteridin-2-yl)thio)-N-(thiazol-2-yl)acetamide], the IC50 on PI3KC2α Δ1-298 (listed as C2a_Inh3, read-out: IC50 for PI3KC2α inhibition) amounted to 0.1 µM; on PI3KC2α Δ1-298 (setting [4]) it was 0.1 µM. The “specificity in kinase panel” value in assay [1] is reported as “specifically inhibited class II PI3Ks; also recorded: relatively high off-targeting activity towards other class II kinase isoforms”. Also, the “CCP lifetime (CCP dynamics)” value in assay [2] (listed as C2a_Inh3) is reported as “increased CCP-lifetimes”; in assay [2] (listed as C2a_Inh_3) it was “increase of lifetime”. Moreover, the “SNX9 AS recruitment to membrane / membrane tubules” value in assay [3] (listed as C2a_Inh3) is listed as “reduced the recruitment of SNX9 to the membrane”; in assay [3] (listed as C2a_inh_3), “remained largely cytosolic”.

With `COC(=O)Cc1csc(NC(=O)CSc2nc3nccnc3c(=O)n2CCc2ccccc2)n1` [Example Compound 24, Methyl 2-(2-(2-((4-oxo-3-phenethyl-3,4-dihydropteridin-2-yl)thio)acetamido)thiazol-4-yl)acetate], the IC50 at PI3KC2α Δ1-298 (setting [4]) turned out to be 2.2 µM.

As for `O=C(CSc1nc2nccnc2c(=O)n1C1Cc2ccccc2C1)Nc1nccs1` [Example Compound 87, 2-((3-(2,3-Dihydro-1H-inden-2-yl)-4-oxo-3,4-dihydropteridin-2-yl)thio)-N-(thiazol-2-yl)acetamide], the IC50 at PI3KC2α Δ1-298 (setting [4]) came to 0.17 µM.

On to `O=C(CSc1nc2nccnc2c(=O)n1CCc1ccccc1)Nc1ncccn1` [Example Compound 20, 2-((4-Oxo-3-phenethyl-3,4-dihydropteridin-2-yl)thio)-N-(pyrimidin-2-yl)acetamide], for which the IC50 at PI3KC2α Δ1-298 (setting [4]) amounted to 2 µM.

With `O=c1c2nccnc2nc(SCc2nc3cc(Br)ccc3[nH]2)n1CCc1ccccc1` [Example Compound 72, 2-(((5-Bromo-1H-benzo[d]imidazol-2-yl)methyl)thio)-3-phenethylpteridin-4(3H)-one], the IC50 at PI3KC2α Δ1-298 (setting [4]) was 51 µM.

In the case of `O=C(CSc1nc2nccnc2c(=O)n1C1CC1c1ccccc1)Nc1nccs1` (stereo not shown) [Example Compound 21, 2-((4-Oxo-3-(2-phenylcyclopropyl)-3,4-dihydropteridin-2-yl)thio)-N-(thiazol-2-yl)acetamide], the IC50 on PI3KC2α Δ1-298 (setting [4]) was determined as 12 µM.

Take `O=C(CSc1nc2nccnc2c(=O)n1CCc1cccs1)Nc1nccs1` [Example Compound 8, 2-((4-Oxo-3-(2-(thiophen-2-yl)ethyl)-3,4-dihydropteridin-2-yl)thio)-N-(thiazol-2-yl)acetamide]: the IC50 on PI3KC2α Δ1-298 (setting [4]) amounted to 1.1 µM.
